Test system: moderate-to-severe chronic spontaneous urticaria (CSU)
Experiment: Phase 2 CSU study: urticaria activity score over 7 days (UAS7)
Format: in vivo, human
Settings: Omalizumab-naïve
From the text: The study comprises a 12 week, randomized, double-blind, placebo-controlled, multi-center, dose-ranging efficacy and safety phase, followed by a 40 week open label extension (OLE) phase (see FIG. 1). The study consists of three phases and an optional OLE phase. […] Clinically, CSU is characterized by the spontaneous and recurrent appearance of pruritic hives. The proposed primary endpoints were the UAS7 at Week 12 in EU and EU reference countries and the ISS7 in the US. Regardless of where a participant was from, all assessments were the same. The UAS7 score is a composite score containing both the HSS7 and the ISS7. This allowed a global assessment of the two key components of urticaria: hives and itch. […] The UAS is a validated PRO measure. […] The daily UAS scores range from 0 to 6 point/day. […] Patients were to complete the UAS using the e-diary. […] The following secondary endpoints were to be analyzed using the same approach as for the primary endpoint: • Change from baseline in UAS7 at Week 4 • Change from baseline in UAS7 at Week 12 (for US and US reference countries) • Change from baseline in ISS7 at Week 12 (except US and US reference countries) • Change from baseline in HSS7 at Week 12 The following responder secondary endpoints were to be analyzed using the Cochran-Mantel-Haenszel test adjusted by region: • Proportion of participants with UAS7<6 at Week 12 • Proportion of participants with UAS7=0 at Week 12 Participants who received selected prohibited medications and/or rescue medications were to be considered as non-responders for time points after the medication usage. For other participants, all available data including those collected during the off-treatment period were to be used to determine the responder/non-responder status. Missing data were to be considered as non-responders.

CC(C)(C=C(C#N)C(=O)N1CCC[C@@H](n2nc(-c3ccc(Oc4ccccc4)cc3F)c3c(N)ncnc32)C1)N1CCN(C2COC2)CC1 [rilzabrutinib, (R)-2-[3-[4-amino-3-(2-fluoro-4-phenoxy-phenyl)pyrazolo[3,4-d]pyrimidin-1-yl]piperidine-1-carbonyl]-4-methyl-4-[4-(oxetan-3-yl)piperazin-1-yl]pent-2-enenitrile]
RRD (%) for rilzabrutinib vs. placebo, UAS7 = 0 (400 mg BID, Week 6): 7.6 % | RRD (%) for rilzabrutinib vs. placebo, UAS7 ≤6 (400 mg BID, Week 6): 8.8 % | Responder n (%), UAS7 = 0 (400 mg BID, Week 6): 4 (11.4) n (%) | Responder n (%), UAS7 ≤6 (400 mg BID, Week 6): 9 (25.7) n (%) | Imputed non-responder n (%), UAS7 = 0 (400 mg BID, Week 7): 2 (5.7) n (%) | Imputed non-responder n (%), UAS7 ≤6 (400 mg BID, Week 7): 2 (5.7) n (%) | Non-responder n (%), UAS7 = 0 (400 mg BID, Week 7): 31 (88.6) n (%) | Non-responder n (%), UAS7 ≤6 (400 mg BID, Week 7): 26 (74.3) n (%) | OR for rilzabrutinib vs. placebo, UAS7 = 0 (400 mg BID, Week 7): 4.254 | OR for rilzabrutinib vs. placebo, UAS7 ≤6 (400 mg BID, Week 7): 2.622 | RRD (%) for rilzabrutinib vs. placebo, UAS7 = 0 (400 mg BID, Week 7): 8.1 % | RRD (%) for rilzabrutinib vs. placebo, UAS7 ≤6 (400 mg BID, Week 7): 13.6 % | Responder n (%), UAS7 = 0 (400 mg BID, Week 7): 4 (11.4) n (%) | Responder n (%), UAS7 ≤6 (400 mg BID, Week 7): 9 (25.7) n (%) | Imputed non-responder n (%), UAS7 = 0 (400 mg BID, Week 8): 3 (8.6) n (%) | Imputed non-responder n (%), UAS7 ≤6 (400 mg BID, Week 8): 3 (8.6) n (%) | Non-responder n (%), UAS7 = 0 (400 mg BID, Week 8): 29 (82.9) n (%) | Non-responder n (%), UAS7 ≤6 (400 mg BID, Week 8): 22 (62.9) n (%) | OR for rilzabrutinib vs. placebo, UAS7 = 0 (400 mg BID, Week 8): 3.154 | OR for rilzabrutinib vs. placebo, UAS7 ≤6 (400 mg BID, Week 8): 2.745 | RRD (%) for rilzabrutinib vs. placebo, UAS7 = 0 (400 mg BID, Week 8): 10.7 % | RRD (%) for rilzabrutinib vs. placebo, UAS7 ≤6 (400 mg BID, Week 8): 18.5 % | Responder n (%), UAS7 = 0 (400 mg BID, Week 8): 6 (17.1) n (%) | Responder n (%), UAS7 ≤6 (400 mg BID, Week 8): 13 (37.1) n (%) | Imputed non-responder n (%), UAS7 = 0 (400 mg BID, Week 9): 7 (20.0) n (%) | Imputed non-responder n (%), UAS7 ≤6 (400 mg BID, Week 9): 7 (20.0) n (%) | Non-responder n (%), UAS7 = 0 (400 mg BID, Week 9): 29 (82.9) n (%) | Non-responder n (%), UAS7 ≤6 (400 mg BID, Week 9): 25 (71.4) n (%) | OR for rilzabrutinib vs. placebo, UAS7 = 0 (400 mg BID, Week 9): 2.249 | OR for rilzabrutinib vs. placebo, UAS7 ≤6 (400 mg BID, Week 9): 2.797 | RRD (%) for rilzabrutinib vs. placebo, UAS7 = 0 (400 mg BID, Week 9): 8.4 % | RRD (%) for rilzabrutinib vs. placebo, UAS7 ≤6 (400 mg BID, Week 9): 15.6 % | Responder n (%), UAS7 = 0 (400 mg BID, Week 9): 6 (17.1) n (%) | Responder n (%), UAS7 ≤6 (400 mg BID, Week 9): 10 (28.6) n (%) | Imputed non-responder n (%), UAS7 = 0 (400 mg BID, Week 10): 8 (22.9) n (%) | Imputed non-responder n (%), UAS7 ≤6 (400 mg BID, Week 10): 8 (22.9) n (%) | Non-responder n (%), UAS7 = 0 (400 mg BID, Week 10): 27 (77.1) n (%) | Non-responder n (%), UAS7 ≤6 (400 mg BID, Week 10): 26 (74.3) n (%) | OR for rilzabrutinib vs. placebo, UAS7 = 0 (400 mg BID, Week 10): 2.159 | OR for rilzabrutinib vs. placebo, UAS7 ≤6 (400 mg BID, Week 10): 1.923 | RRD (%) for rilzabrutinib vs. placebo, UAS7 = 0 (400 mg BID, Week 10): 10.6 % | RRD (%) for rilzabrutinib vs. placebo, UAS7 ≤6 (400 mg BID, Week 10): 9.9 % | Responder n (%), UAS7 = 0 (400 mg BID, Week 10): 8 (22.9) n (%) | Responder n (%), UAS7 ≤6 (400 mg BID, Week 10): 9 (25.7) n (%) | Imputed non-responder n (%), UAS7 = 0 (400 mg BID, Week 11): 7 (20.0) n (%) | Imputed non-responder n (%), UAS7 ≤6 (400 mg BID, Week 11): 7 (20.0) n (%) | Non-responder n (%), UAS7 = 0 (400 mg BID, Week 11): 30 (85.7) n (%) | Non-responder n (%), UAS7 ≤6 (400 mg BID, Week 11): 25 (71.4) n (%) | OR for rilzabrutinib vs. placebo, UAS7 = 0 (400 mg BID, Week 11): 2.551 | OR for rilzabrutinib vs. placebo, UAS7 ≤6 (400 mg BID, Week 11): 1.853 | RRD (%) for rilzabrutinib vs. placebo, UAS7 = 0 (400 mg BID, Week 11): 7.4 % | Responder n (%), UAS7 = 0 (400 mg BID, Week 11): 5 (14.3) n (%) | Responder n (%), UAS7 ≤6 (400 mg BID, Week 11): 10 (28.6) n (%) | Imputed non-responder n (%), UAS7 = 0 (400 mg BID, Week 12): 11 (31.4) n (%) | Imputed non-responder n (%), UAS7 ≤6 (400 mg BID, Week 12): 11 (31.4) n (%) | Non-responder n (%), UAS7 = 0 (400 mg BID, Week 12): 30 (85.7) n (%) | Non-responder n (%), UAS7 ≤6 (400 mg BID, Week 12): 28 (80.0) n (%) | OR for rilzabrutinib vs. placebo, UAS7 = 0 (400 mg BID, Week 12): 1.258 | OR for rilzabrutinib vs. placebo, UAS7 ≤6 (400 mg BID, Week 12): 1.904 | RRD (%) for rilzabrutinib vs. placebo, UAS7 = 0 (400 mg BID, Week 12): 2.6 % | RRD (%) for rilzabrutinib vs. placebo, UAS7 ≤6 (400 mg BID, Week 12): 7.9 % | Responder n (%), UAS7 = 0 (400 mg BID, Week 12): 5 (14.3) n (%) | Responder n (%), UAS7 ≤6 (400 mg BID, Week 12): 7 (20.0) n (%) | Imputed non-responder n (%), UAS7 = 0 (400 mg QPM, Week 1): 0 n (%) | Imputed non-responder n (%), UAS7 ≤6 (400 mg QPM, Week 1): 0 n (%) | Non-responder n (%), UAS7 = 0 (400 mg QPM, Week 1): 37 (100) n (%)

Reference: patent publication US20260256792A1, “TREATMENT OF CHRONIC SPONTANEOUS URTICARIA BY ADMINISTERING (R)-2-[3-[4-AMINO-3-(2-FLUORO-4-PHENOXY-PHENYL)PYRAZOLO[3,4-D]PYRIMIDIN-1-YL]PIPERIDINE-1-CARBONYL]-4-METHYL-4-[4-(OXETAN-3-YL)PIPERAZIN-1-YL]PENT-2-ENENITRILE” (priority 2023, published 2026)
